Measurements reported in PubChem BioAssay AID1963985 (Molecular Pharmacology Branch, DTP, NCI, 2024).

Tested on: 252836-082-R-J2-PDC tumor spheroids, viability
Assay: Anticancer human tumor 252836-082-R-J2-PDC patient-derived head and neck squamous cell carcinoma cell line growth inhibition [PI3K]
Conditions: spheroids with HUVEC and MSC; for viability, T/C: stronger effect = lower value
Summary of the method: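 We assembled tumor spheroids that included a stromal compartment of HUVEC and MSCs, then exposed them to targeted agents alone and together with PI3K pathway inhibitors. Concentration series descended by half-log from clinically achievable Cmax levels. Viability served as the endpoint.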
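Further: spheroids exposed to agents for seven days before readout.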
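Wherever viability, T/C is given: percent of vehicle DMSO control viability so 100% = untreated growth.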

## CNC(=O)c1ccc(N2C(=S)N(c3ccc(C#N)c(C(F)(F)F)c3)C(=O)C2(C)C)cc1F + CC(Nc1ccc2c(c1)OCCn1cc(N3C(=O)OCC3C(F)F)nc1-2)C(N)=O
Curve of first compound, second compound 0.00316 µM
  IC50: > 10 µM
Curve of first compound, second compound 0.01 µM
  IC50: > 10 µM
Curve of first compound, second compound 0.0316 µM
  IC50: > 10 µM
Curve of first compound, second compound 0.1 µM
  IC50: > 10 µM
Curve of first compound, second compound 0.316 µM
  IC50: > 10 µM
Curve of first compound, second compound 1 µM
  IC50: < 0.0316 µM
Second compound 0.00316 µM, first compound 0.0316 µM
  viability, T/C: 97%
Second compound 0.00316 µM, first compound 0.1 µM
  viability, T/C: 84.2%
Second compound 0.00316 µM, first compound 0.316 µM
  viability, T/C: 92.5%
Second compound 0.00316 µM, first compound 1 µM
  viability, T/C: 91.6%
Second compound 0.00316 µM, first compound 3.16 µM
  viability, T/C: 102%
Second compound 0.00316 µM, first compound 10 µM
  viability, T/C: 84.1%
Second compound 0.01 µM, first compound 0.0316 µM
  viability, T/C: 96.5%
Second compound 0.01 µM, first compound 0.1 µM
  viability, T/C: 99.9%
Second compound 0.01 µM, first compound 0.316 µM
  viability, T/C: 82%
Second compound 0.01 µM, first compound 1 µM
  viability, T/C: 89.1%
Second compound 0.01 µM, first compound 3.16 µM
  viability, T/C: 103%
Second compound 0.01 µM, first compound 10 µM
  viability, T/C: 98%
Second compound 0.0316 µM, first compound 0.0316 µM
  viability, T/C: 90.8%
Second compound 0.0316 µM, first compound 0.1 µM
  viability, T/C: 81.7%
Second compound 0.0316 µM, first compound 0.316 µM
  viability, T/C: 80.2%
Second compound 0.0316 µM, first compound 1 µM
  viability, T/C: 77.1%
Second compound 0.0316 µM, first compound 3.16 µM
  viability, T/C: 75.1%
Second compound 0.0316 µM, first compound 10 µM
  viability, T/C: 78.9%
Second compound 0.1 µM, first compound 0.0316 µM
  viability, T/C: 68.9%
Second compound 0.1 µM, first compound 0.1 µM
  viability, T/C: 69.5%
Second compound 0.1 µM, first compound 0.316 µM
  viability, T/C: 73.7%
Second compound 0.1 µM, first compound 1 µM
  viability, T/C: 66%
Second compound 0.1 µM, first compound 3.16 µM
  viability, T/C: 61.5%
Second compound 0.1 µM, first compound 10 µM
  viability, T/C: 67.9%
Second compound 0.316 µM, first compound 0.0316 µM
  viability, T/C: 55.4%
Second compound 0.316 µM, first compound 0.1 µM
  viability, T/C: 58.3%
Second compound 0.316 µM, first compound 0.316 µM
  viability, T/C: 53%
Second compound 0.316 µM, first compound 1 µM
  viability, T/C: 51.9%
Second compound 0.316 µM, first compound 3.16 µM
  viability, T/C: 61.9%
Second compound 0.316 µM, first compound 10 µM
  viability, T/C: 52.3%
Second compound 1 µM, first compound 0.0316 µM
  viability, T/C: 46.3%
Second compound 1 µM, first compound 0.1 µM
  viability, T/C: 44%
Second compound 1 µM, first compound 0.316 µM
  viability, T/C: 43.2%
Second compound 1 µM, first compound 1 µM
  viability, T/C: 50.5%
Second compound 1 µM, first compound 3.16 µM
  viability, T/C: 51.4%
Second compound 1 µM, first compound 10 µM
  viability, T/C: 45.8%

## CC1(C)CCC(Nc2ncc(C(F)(F)F)c(-c3c[nH]c4c(P(C)(C)=O)c(C#N)ccc34)n2)CN1 (centres undefined)
Compound 0.0316 µM
  viability, T/C: 30.1% [middle of 4 runs]
Compound 0.1 µM
  viability, T/C: 29.5% [middle of 4 runs]
Compound 0.316 µM
  viability, T/C: 35.8% [middle of 4 runs]
Compound 1 µM
  viability, T/C: 33% [middle of 4 runs]
Compound 3.16 µM
  viability, T/C: 32.1% [middle of 4 runs]
Compound 10 µM
  viability, T/C: 7.06% [middle of 4 runs]
Curve of compound
  IC50: < 0.0316 µM
